# Test results taken from the supplement of paper PMC8967900.
# What was measured:
# Assay in all cases: selective drug sensitivity score (sDSS, relative to normal bone marrow) (sDSS (score)); higher = more potent and effective on the cell line relative to normal bone marrow cells
# Settings in all cases: 72 h
# [1] = test system: 697
# [2] = test system: ALL-PO
# [3] = test system: CCRF-HSB2
# [4] = test system: COG-LL-332h
# [5] = test system: COG-LL-355h
# [6] = test system: COG-LL-402h
# [7] = test system: HAL-01
# [8] = test system: HPB-ALL
# [9] = test system: KASUMI-10
# [10] = test system: KASUMI-2
# [11] = test system: KASUMI-9
# [12] = test system: KOPN-8
# [13] = test system: LC4-1
# [14] = test system: MHH-CALL-2
# [15] = test system: MHH-CALL-4
# [16] = test system: MOLT-16
# [17] = test system: MOLT-4
# [18] = test system: RCH-ACV
# [19] = test system: SEM cells
# [20] = test system: TMD5
# 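Note: ALL cell lines in 384-well plates, five doses spanning 10,000-fold, each plate scaled between vehicle and 100 µmol/L benzalkonium chloride controls, sDSS an adapted area-under-curve metric.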
Compound,selective drug sensitivity score [1],selective drug sensitivity score [2],selective drug sensitivity score [3],selective drug sensitivity score [4],selective drug sensitivity score [5],selective drug sensitivity score [6],selective drug sensitivity score [7],selective drug sensitivity score [8],selective drug sensitivity score [9],selective drug sensitivity score [10],selective drug sensitivity score [11],selective drug sensitivity score [12],selective drug sensitivity score [13],selective drug sensitivity score [14],selective drug sensitivity score [15],selective drug sensitivity score [16],selective drug sensitivity score [17],selective drug sensitivity score [18],selective drug sensitivity score [19],selective drug sensitivity score [20]
CC1=C2C[C@H]3[C@@H](CC[C@@H]4C[C@H](NS(C)(=O)=O)CC[C@@]43C)[C@@H]2CC[C@@]2(C1)O[C@@H]1C[C@H](C)CN[C@H]1[C@H]2C [Saridegib] (top concentration 10000 nM),1.24,1.74,0.24,-0.06,-0.96,0.94,1.14,0.34,-1.16,5.04,-0.06,-1.16,0.54,3.14,3.14,-0.26,-0.86,6.64,-1.16,1.74
Cc1cc(F)c(C(=O)Nc2cccc(-c3nncn3C(C)C)n2)cc1-n1cnc(C2CC2)c1 [Selonsertib] (top concentration 1000 nM),0.3,0,0,0,0,0,6.6,0,0,0,1.2,0,0,11.5,0.2,0,0,0.5,0,6.7
Nc1nc2cc(-c3ccc4ncc(C(=O)N5CCOCC5)n4c3)ccc2o1 [Serabelisib] (top concentration 10000 nM),2.96,4.96,-1.24,-1.14,4.06,-0.14,-1.54,0.66,-1.54,2.96,2.56,2.56,0.86,3.06,0.46,-0.94,-1.54,6.56,1.56,-1.54
CCC(C)(C)C(=O)O[C@H]1C[C@@H](C)C=C2C=C[C@H](C)[C@H](CC[C@@H]3C[C@@H](O)CC(=O)O3)[C@H]21 [Simvastatin] (top concentration 10000 nM),-0.22,-0.72,0.08,0.68,3.48,0.08,3.08,0.38,-0.72,-0.72,4.18,4.48,2.18,9.58,2.58,2.18,-0.72,2.18,1.58,5.78
C=CCN(/C=C1/C(=O)O[C@H](COC)[C@@]2(C)C1=C(O)C(=O)C1=C2[C@H](OC(C)=O)C[C@]2(C)C(=O)CC[C@@H]12)CC=C [Sonolisib] (top concentration 10000 nM),0.24,2.44,-0.76,-0.66,0.94,-0.76,1.94,-0.76,-0.76,-0.76,0.14,-0.16,-0.56,0.34,-0.06,-0.76,-0.76,2.14,-0.76,-0.76
CC(C)n1cnc2c(NCCc3ccc(O)cc3)nc(-c3csc4ccccc34)nc21 [StemRegenin_1] (top concentration 10000 nM),-0.5,1.9,1.9,0.8,-0.1,-1.8,2.4,6.4,-1.8,-1.8,-0.5,0.1,-0.1,2.5,-1.8,4.4,2.5,-0.6,-0.5,-1.8
CC(C)(O)CC(=O)NCCn1ccc2ncnc(Nc3ccc(Oc4cccc(C(F)(F)F)c4)c(Cl)c3)c21 [TAK-285] (top concentration 2500 nM),0,0,0,0,0,0,3.1,0,0,0,3.3,0,0,1.6,0,0,0,0,0,3.1
Nc1nc(N)c2nc(-c3cccc(O)c3)c(-c3cccc(O)c3)nc2n1 [TG100-115] (top concentration 10000 nM),0.7,-0.2,3.9,0.2,3.7,-0.4,3.2,-0.4,0.1,-0.4,1.6,2.7,0.1,5.2,-0.4,1.1,-0.4,5.6,0.7,3
CC/C(=C(\c1ccccc1)c1ccc(OCCN(C)C)cc1)c1ccccc1 [Tamoxifen] (top concentration 10000 nM),1.62,2.72,0.92,1.32,1.82,1.22,1.82,6.02,-3.28,5.72,1.52,7.92,4.12,0.82,0.52,2.82,-0.98,4.42,-1.28,-0.48
